Assay results taken from patent US4159384A, “Phenenyltris (carbonylimino)multi-anionic substituted triphenyl acids and salts” (American Cyanamid Company, priority 1978, dated 1979).
Counter-ions that a name gives are not always drawn.

Tested on: shunt pathway
Test: Test, Code 036 (C-Shunt inhibitor): lysis of fragile human erythrocytes in autologous serum, cobra venom factor
Assay type: biochemical
Details: in vitro, appropriate dilutions of the test compound
Text: An active inhibitor protects C2 from C1 and C4; (ii) Test, Code 035 (C3-C9 inhibitor)--This test determines the ability of the late components of human complement (C3-C9) to lyse EAC 142 in the presence of appropriate dilutions of the test compound. An active inhibitor protects EAC 142 from lysis by human C3-C9; (iii) Test, Code 036 (C-Shunt inhibitor)--In this test human erythrocytes rendered fragile are lysed in autologous serum via the shunt pathway activated by cobra venom factor in the presence of appropriate dilutions of the test compound. Inhibition of the shunt pathway results in failure of lysis; (iv) Forssman Vasculitis Test--Here, the well known complement dependent lesion, Forssman vasculitis, is produced in guinea pigs by intradermal injection of rabbit anti-Forssman antiserum. […]

Structure (SMILES): O=C(Nc1cc(C(=O)O)c(O)c(S(=O)(=O)O)c1)c1cc(C(=O)Nc2cc(C(=O)O)c(O)c(S(=O)(=O)O)c2)cc(C(=O)Nc2cc(C(=O)O)c(O)c(S(=O)(=O)O)c2)c1 [5,5',5"-[s-Phenenyltris(carbonylimino)]tri-3-sulfo salicylic acid trisodium salt]
- Shunt Inhibition 036 Wells: +1 Wells
